Data taken from patent US20240197760A1, “ACTIVATORS OF INTEGRATED STRESS RESPONSE PATHWAY FOR PROTECTION AGAINST FERROPTOSIS” (Burke Neurological Institute, priority 2021, published 2024).
Entries after “also recorded” stand apart in the source; their conditions may differ.

Legend:
JTC-19 line = conditions: JTC-19 lung cancer line; cited from earlier work
HEK293 cell line = conditions: cited from earlier work
MCAO mice = assay: Filament MCAO model of transient ischemic stroke, sensory and motor function; type: in vivo, mouse; conditions: 10 mg/Kg i.p. from 24 h after MCAO, every day for 4 weeks
Procedure: To assess the effect of 2-DG on the Bdnf gene expression, mice were injected with either saline or 2-DG (10 mg/Kg) intraperitoneally for 6 h and then mice were euthanized properly, and hippocampi were dissected out from mice brain. In order to assess functional improvement with 2-DG treatment after ischemic stroke, mice were injected with 2-DG (10 mg/Kg) intraperitoneally 24 h after induction of the stroke and then every day for four weeks. For assessing functional improvement with 2-DG treatment after hemorrhagic stroke, mice were injected with 2-DG (10 mg/Kg) intraperitoneally 24 h after induction of the stroke and then every day for three weeks. The ischemic stroke was induced using filament MCAO method as described before (Alim et al., 2019). In brief, all surgeries were conducted in sterile conditions. Male mice were anesthetized with isoflurane (5% induction, and 2% maintenance). A 2 cm incision was opened in the middle of the anterior neck. The right common carotid was temporarily ligated with 6-0 silk (Ethicon Inc.). Right unilateral MCAO was accomplished by inserting a Silicon rubber-coated monofilament (Doccol Corporation) into the internal carotid artery via the external carotid artery stump. Adequacy of MCAO was confirmed by monitoring cortical blood flow at the onset of the occlusion with a laser Doppler flowmetry probe affixed to the skull (Periflux System 5010; Perimed, Sweden). Animals were excluded if mean intra-ischemic laser Doppler flowmetry was >30% pre-ischemic baseline. […] The integrated sensorimotor function in both stimulation of vibrissae (sensory neglect) and rearing (motor response) was assessed through the corner turn test as described previously (Karuppagounder et al., 2016). […] The direction (left or right) in which the mouse turned around was recorded for each trial. […] The time from which the tape was applied to when the mouse successfully removed it was recorded for each paw. […] The latency to reach the ground were recorded. […]

mouse primary neurons = assay: Live-dead cell viability assay (calcein-AM / ethidium homodimer); type: cell-based; conditions: 1 mM to 15 mM, 24 h, cultured mouse primary neurons
[1] = vs saline significant on days 21 and 28

OC[C@H]1OC(O)C[C@@H](O)[C@@H]1O (stereo partly drawn) [2-DG, (4R,5S,6R)-6-(hydroxymethyl)oxane-2,4,5-triol]
Bdnf gene expression (JTC-19 line): inhibit the Bdnf gene expression
Bdnf gene expression (HEK293 cell line): inhibit the Bdnf gene expression
pole test after ischemic stroke (MCAO mice; vs saline significant on day 21): significant improvement; also recorded: significant difference
corner test after ischemic stroke (MCAO mice; [1]): significant improvement; also recorded: significant difference
tape removal test after ischemic stroke (MCAO mice; [1]): significant improvement; also recorded: significant difference
toxicity / neuronal cell death in live-dead assay (mouse primary neurons): no toxicity
